In ChEMBL document CHEMBL3600360, “Fluorescent photoaffinity probes for mitotic protein kinase Aurora A” (Bioorg Med Chem Lett, 2015):
Calls of active or inactive are those of the source. No cut-off for these calls is given here.

Tests used:
[1] = molecular target: T1, Aurora kinase A (Homo sapiens) (UniProt O14965); experiment: Binding affinity to purified recombinant full-length Aurora A (unknown origin) assessed as covalent irreversible complex formation at 4.8 uM irradiated for 15 mins with near-UV light using 200 nM Aurora A by SDS-PAGE and Western blot method
T1 sequence (whole entry): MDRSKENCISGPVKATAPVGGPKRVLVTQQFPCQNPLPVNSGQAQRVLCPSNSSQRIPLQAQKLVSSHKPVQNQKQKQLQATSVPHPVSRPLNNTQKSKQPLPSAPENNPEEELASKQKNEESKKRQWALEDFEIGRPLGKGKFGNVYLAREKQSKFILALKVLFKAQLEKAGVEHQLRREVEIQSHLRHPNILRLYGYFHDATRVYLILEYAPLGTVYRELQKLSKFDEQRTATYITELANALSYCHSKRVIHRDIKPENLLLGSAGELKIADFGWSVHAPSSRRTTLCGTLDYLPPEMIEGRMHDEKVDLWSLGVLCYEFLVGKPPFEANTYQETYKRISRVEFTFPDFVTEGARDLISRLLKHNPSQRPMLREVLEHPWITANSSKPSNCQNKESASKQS

[2] = molecular target: T1, Aurora kinase A (Homo sapiens); experiment: Binding affinity to Aurora A in human HeLa cells assessed as covalent irreversible complex formation at 1 uM irradiated for 15 mins with near-UV light by SDS-PAGE and Western blot method; format: cell-based
Aurora kinase A = molecular target: T2, Aurora kinase A (Homo sapiens, UniProt O14965); experiment: Binding affinity to purified recombinant full-length Aurora A (unknown origin) by fluorescence polarisation/anisotropy based equilibrium binding assay
T2 sequence (O14965 whole entry): T1 sequence (whole entry)

[3] = molecular target: T1, Aurora kinase A (Homo sapiens); experiment: Binding affinity to 1 uM and >100 uM VX689-prre-treated purified recombinant full-length Aurora A (unknown origin) assessed as covalent irreversible complex formation at 1 uM irradiated for 15 mins with near-UV light by SDS-PAGE and Western blot method
[4] = molecular target: T1, Aurora kinase A (Homo sapiens); experiment: Inhibition of purified recombinant full-length Aurora A (unknown origin) assessed as residual enzyme activity at 2 mM using kemptide analogue substrate and 5 mM ATP in presence of TPX2 (1 to 43 residues)
[5] = molecular target: T1, Aurora kinase A (Homo sapiens); experiment: Binding affinity to purified recombinant full-length Aurora A (unknown origin) assessed as covalent irreversible complex formation at 2.4 uM irradiated for 15 mins with near-UV light in presence of TPX2 by SDS-PAGE and Western blot method
[6] = molecular target: T1, Aurora kinase A (Homo sapiens); experiment: Binding affinity to Aurora A in human HeLa cells assessed as covalent irreversible complex formation at 1 uM irradiated for 15 mins with near-UV light in presence of Aurora A inhibitor MLN8237 by SDS-PAGE and Western blot method; format: cell-based
[7] = molecular target: T1, Aurora kinase A (Homo sapiens); experiment: Binding affinity to purified recombinant full-length Aurora A (unknown origin) assessed as covalent irreversible complex formation at 2.4 uM irradiated for 15 mins with near-UV light by SDS-PAGE and Western blot method
[8] = molecular target: T1, Aurora kinase A (Homo sapiens); experiment: Binding affinity to purified recombinant full-length Aurora A (unknown origin) assessed as covalent irreversible complex formation at 1.2 uM irradiated for 30 mins with near-UV light by SDS-PAGE and Western blot method
[9] = molecular target: T1, Aurora kinase A (Homo sapiens); experiment: Binding affinity to purified recombinant full-length Aurora A (unknown origin) assessed as covalent irreversible complex formation at 1.2 uM irradiated for 15 mins with near-UV light in presence of TPX2 by SDS-PAGE and Western blot method

Row | SMILES | Activity [1] | Activity [2] | Kd (Aurora kinase A) | Activity [3] | Activity [4] | Activity [5] | Activity [6] | Activity [7] | Activity [8] | Activity [9]
1 | CN(C)c1ccc2c(-c3ccc(C(=O)NCCCC[C@H](NC(=O)[C@H](Cc4ccc(N=[N+]=[N-])cc4)NC(=O)[C@H](Cc4ccc(N=[N+]=[N-])cc4)NC(=O)CCCNC(=O)[C@]4(Cc5cccc(Nc6nccs6)n5)CC[C@@H](Oc5cccc(Cl)c5F)CC4)C(N)=O)cc3C(=O)O)c3ccc(=[N+](C)C)cc-3oc2c1 | inactive | Active | 1.9 nM | inactive | 100% | Active | Active | 40% |  | 
2 | CCN1/C(=C/C=C/C2=[N+](CC)c3ccc(S(=O)(=O)O)cc3C2(C)C)C(C)(CCCC(=O)NCCCC[C@@H](NC(=O)[C@H](CCCNC(=N)N)NC(=O)[C@H](CCCNC(=N)N)NC(=O)[C@H](CCCNC(=N)N)NC(=O)[C@H](CCCNC(=N)N)NC(=O)[C@H](CCCNC(=N)N)NC(=O)[C@H](CCCNC(=N)N)NC(=O)[C@@H](Cc2ccc(N=[N+]=[N-])cc2)NC(=O)[C@@H](Cc2ccc(N=[N+]=[N-])cc2)NC(=O)CCNC(=O)[C@]2(Cc3cccc(Nc4nccs4)n3)CC[C@@H](Oc3cccc(Cl)c3F)CC2)C(N)=O)c2cc(S(=O)(=O)O)ccc21 (some centres not stated) |  | Active | 6.1 nM | inactive | 74% |  | inactive | 15% |  | 
3 | CN(C)c1ccc2c(-c3ccc(C(=O)NCCCOCCOCCOCCCNC(=O)[C@@H](Cc4ccc(N=[N+]=[N-])cc4)NC(=O)CCNC(=O)[C@]4(Cc5cccc(Nc6nccs6)n5)CC[C@@H](Oc5cccc(Cl)c5F)CC4)cc3C(=O)O)c3ccc(=[N+](C)C)cc-3oc2c1 |  |  | 2.2 nM | inactive | 73% |  |  |  | 20% | 
4 | CCN1/C(=C/C=C/C2=[N+](CC)c3ccc(S(=O)(=O)O)cc3C2(C)C)C(C)(CCCC(=O)NCCCC[C@@H](NC(=O)[C@@H](CCCNC(=N)N)NC(=O)[C@@H](CCCNC(=N)N)NC(=O)[C@@H](CCCNC(=N)N)NC(=O)[C@@H](CCCNC(=N)N)NC(=O)[C@@H](CCCNC(=N)N)NC(=O)[C@@H](CCCNC(=N)N)NC(=O)[C@@H](Cc2ccc(N=[N+]=[N-])cc2)NC(=O)[C@@H](Cc2ccc(N=[N+]=[N-])cc2)NC(=O)CCNC(=O)[C@]2(Cc3cccc(Nc4nccs4)n3)CC[C@@H](Oc3cccc(Cl)c3F)CC2)C(N)=O)c2cc(S(=O)(=O)O)ccc21 (stereo in doubt) |  |  | 2.5 nM | inactive | 96% |  |  | 11% |  | 
5 | CCN1/C(=C/C=C/C2=[N+](CC)c3ccc(S(=O)(=O)O)cc3C2(C)C)C(C)(CCCC(=O)NCCCC[C@@H](NC(=O)[C@@H](CCCNC(=N)N)NC(=O)[C@@H](CCCNC(=N)N)NC(=O)[C@@H](CCCNC(=N)N)NC(=O)[C@@H](CCCNC(=N)N)NC(=O)[C@@H](CCCNC(=N)N)NC(=O)[C@@H](CCCNC(=N)N)NC(=O)[C@H](Cc2ccc(N=[N+]=[N-])cc2)NC(=O)[C@H](Cc2ccc(N=[N+]=[N-])cc2)NC(=O)CCNC(=O)[C@]2(Cc3cccc(Nc4nccs4)n3)CC[C@@H](Oc3cccc(Cl)c3F)CC2)C(N)=O)c2cc(S(=O)(=O)O)ccc21 (some centres not stated) |  | Active | 5.7 nM | inactive | 71% |  | inactive | 18% |  | 
6 | CN(C)c1ccc2c(-c3ccc(C(=O)NCCCC[C@H](NC(=O)[C@H](Cc4ccccc4)NC(=O)[C@H](Cc4ccccc4)NC(=O)CCCNC(=O)[C@]4(Cc5cccc(Nc6nccs6)n5)CC[C@@H](Oc5cccc(Cl)c5F)CC4)C(N)=O)cc3C(=O)O)c3ccc(=[N+](C)C)cc-3oc2c1 |  |  | 0.44 nM |  | 110% |  |  |  | 1.5% | Active

Other lines, results leading:

Row | Activity [1] | Activity [2] | Kd (Aurora kinase A) | Activity [3] | Activity [4] | Activity [5] | Activity [6] | Activity [7] | Activity [8] | Activity [9] | SMILES
7 |  |  |  |  | 67% |  |  |  |  |  | O=C(O)[C@]1(Cc2cccc(Nc3nccs3)n2)CC[C@@H](Oc2cccc(Cl)c2F)CC1
8 |  |  |  |  | 100% |  |  | 8.5% |  |  | CCN1/C(=C/C=C/C2=[N+](CC)c3ccc(S(=O)(=O)O)cc3C2(C)C)C(C)(CCCC(=O)NCCCC[C@@H](NC(=O)[C@H](CCCNC(=N)N)NC(=O)[C@H](CCCNC(=N)N)NC(=O)[C@H](CCCNC(=N)N)NC(=O)[C@H](CCCNC(=N)N)NC(=O)[C@H](CCCNC(=N)N)NC(=O)[C@H](CCCNC(=N)N)NC(=O)[C@H](Cc2ccc(C(=O)c3ccccc3)cc2)NC(=O)[C@H](Cc2ccc(C(=O)c3ccccc3)cc2)NC(=O)CCCNC(=O)[C@]2(Cc3cccc(Nc4nccs4)n3)CC[C@@H](Oc3cccc(Cl)c3F)CC2)C(N)=O)c2cc(S(=O)(=O)O)ccc21 (some centres not stated)
9 |  | Active |  |  | 100% |  | Active |  | 9% | Active | CN(C)c1ccc2c(-c3ccc(C(=O)NCCCC[C@H](NC(=O)[C@H](Cc4ccc(C(=O)c5ccccc5)cc4)NC(=O)[C@H](Cc4ccc(C(=O)c5ccccc5)cc4)NC(=O)CCCNC(=O)[C@]4(Cc5cccc(Nc6nccs6)n5)CC[C@@H](Oc5cccc(Cl)c5F)CC4)C(N)=O)cc3C(=O)O)c3ccc(=[N+](C)C)cc-3oc2c1
10 |  |  | 6.5 nM |  | 110% |  |  | 6.9% |  |  | CCN1/C(=C/C=C/C2=[N+](CC)c3ccc(S(=O)(=O)O)cc3C2(C)C)C(C)(CCCC(=O)NCCCC[C@@H](NC(=O)[C@@H](CCCNC(=N)N)NC(=O)[C@@H](CCCNC(=N)N)NC(=O)[C@@H](CCCNC(=N)N)NC(=O)[C@@H](CCCNC(=N)N)NC(=O)[C@@H](CCCNC(=N)N)NC(=O)[C@@H](CCCNC(=N)N)NC(=O)[C@@H](Cc2ccc(C(=O)c3ccccc3)cc2)NC(=O)[C@@H](Cc2ccc(C(=O)c3ccccc3)cc2)NC(=O)CCCNC(=O)[C@]2(Cc3cccc(Nc4nccs4)n3)CC[C@@H](Oc3cccc(Cl)c3F)CC2)C(N)=O)c2cc(S(=O)(=O)O)ccc21 (some centres not stated)
11 |  |  | 9.1 nM |  | 100% |  |  | 8.1% |  |  | CCN1/C(=C/C=C/C2=[N+](CC)c3ccc(S(=O)(=O)O)cc3C2(C)C)C(C)(CCCC(=O)NCCCC[C@@H](NC(=O)[C@@H](CCCNC(=N)N)NC(=O)[C@@H](CCCNC(=N)N)NC(=O)[C@@H](CCCNC(=N)N)NC(=O)[C@@H](CCCNC(=N)N)NC(=O)[C@@H](CCCNC(=N)N)NC(=O)[C@@H](CCCNC(=N)N)NC(=O)[C@H](Cc2ccc(C(=O)c3ccccc3)cc2)NC(=O)[C@H](Cc2ccc(C(=O)c3ccccc3)cc2)NC(=O)CCCNC(=O)[C@]2(Cc3cccc(Nc4nccs4)n3)CC[C@@H](Oc3cccc(Cl)c3F)CC2)C(N)=O)c2cc(S(=O)(=O)O)ccc21 (some centres not stated)
12 |  |  |  |  | 10% |  |  |  |  |  | N=C(N)NCCC[C@@H](NC(=O)[C@@H](CCCNC(=N)N)NC(=O)[C@@H](CCCNC(=N)N)NC(=O)[C@@H](CCCNC(=N)N)NC(=O)[C@@H](CCCNC(=N)N)NC(=O)[C@@H](CCCNC(=N)N)NC(=O)CCCCCNC(=O)[C@]1(Cc2cccc(Nc3nccs3)n2)CC[C@@H](Oc2cccc(Cl)c2F)CC1)C(N)=O
